Measurements taken from ChEMBL document CHEMBL1201862, “PubChem BioAssay data set” (2004).
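Results reflect a 48-hour exposure of cells in 96-well plates to compound at five concentrations. GI50 is the concentration that inhibits growth by half.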 Calls of active or inactive are those of the source. Rule as the data show it: active = GI50 up to about 1.1 µM and inactive = higher.

How the values were obtained:
Experiment in all cases: NCI-60 cell line screen, 48 h
[1] = test system: SF-539
[2] = test system: SK-OV-3
[3] = test system: EKVX
[4] = test system: NCI-H226
[5] = test system: HT-29
[6] = test system: SNB-75
[7] = test system: HCT-116
[8] = test system: OVCAR-8
[9] = test system: NCI-H23
[10] = test system: NCI-H460
[11] = test system: UACC-257
[12] = test system: UACC-62
[13] = test system: U-251
[14] = test system: SK-MEL-28
[15] = test system: A498
[16] = test system: CCRF-CEM

Measured: GI50

CC(=O)n1cc(CC(C)O)c(=O)[nH]c1=O (stereo not drawn)
inactive: [1] > 100 µM | [2] > 100 µM | [3] > 100 µM | [4] > 100 µM | [5] > 100 µM | [6] > 100 µM | [7] > 100 µM | [8] > 100 µM | [9] > 100 µM | [10] > 100 µM | [11] > 100 µM | [12] > 100 µM | [13] > 100 µM | [14] > 100 µM | [15] > 100 µM

O=C(O)C(CS)Nc1c2ccccc2nc2ccccc12 (stereo not drawn)
inactive: [1] 50 µM | [2] > 100 µM | [3] 42.7 µM | [4] > 100 µM | [5] 46.6 µM | [16] 79.3 µM | [6] > 100 µM | [7] > 10 µM | [8] 48.3 µM | [9] 91.8 µM | [10] 36.1 µM | [11] 58.5 µM | [13] > 100 µM | [14] > 100 µM

OC1OC2COC(c3ccccc3)OC2C(O)C1O (stereo not drawn)
inactive: [1] > 100 µM | [2] > 100 µM | [3] > 100 µM | [4] > 100 µM | [5] > 100 µM | [16] > 100 µM | [7] > 100 µM | [8] > 100 µM | [9] > 100 µM | [10] > 100 µM | [11] > 100 µM | [12] > 100 µM | [13] > 100 µM | [15] > 100 µM

Cc1ccc(S(=O)(=O)N/N=C(\c2nc3ccc(Cl)cc3[nH]c2=O)C(O)c2ccco2)cc1 (stereo not drawn)
inactive: [1] > 100 µM | [3] > 100 µM | [4] > 100 µM | [5] > 100 µM | [16] 7.5 µM | [6] > 100 µM | [7] > 100 µM | [9] > 100 µM | [10] > 100 µM | [11] > 100 µM | [12] > 100 µM | [14] > 100 µM | [15] > 100 µM

CS(=O)(=O)C1S(=O)(=O)OCCOS1(=O)=O
inactive: [1] > 100 µM | [2] > 100 µM | [3] > 100 µM | [4] 7.93 µM | [5] > 100 µM | [6] > 100 µM | [7] > 100 µM | [8] > 100 µM | [9] > 100 µM | [10] > 100 µM | [11] > 100 µM | [12] > 100 µM | [13] > 100 µM | [14] > 100 µM | [15] > 100 µM

COc1ccc(Br)c(C(=O)N2CCc3ccccc32)c1N
inactive: [1] 27.5 µM | [2] 30.5 µM | [4] 58.6 µM | [5] 52 µM | [16] 33.4 µM | [6] 26.9 µM | [7] 42.2 µM | [8] 32.3 µM | [9] 44.9 µM | [10] 36 µM | [11] 29.9 µM | [12] 43.8 µM | [13] 33.9 µM | [14] 52.7 µM

O=C1CCCC(O)=C1SC1=C(O)CCCC1=O
inactive: [1] > 100 µM | [2] > 100 µM | [3] > 100 µM | [4] > 100 µM | [5] 72.8 µM | [16] 71.6 µM | [6] 77.4 µM | [7] 76 µM | [8] > 100 µM | [9] > 100 µM | [11] > 100 µM | [12] 46.9 µM | [13] > 100 µM | [14] 69.2 µM | [15] 39.2 µM

COc1ccc2c3ccc4c(c3n(C)c2c1)C(=O)C=CC4=O
inactive: [1] 20.8 µM | [2] > 100 µM | [3] 72.8 µM | [4] > 100 µM | [5] > 100 µM | [16] 2.93 µM | [6] > 100 µM | [7] 19.6 µM | [8] 16.9 µM | [9] 52.1 µM | [11] 29.2 µM | [12] 40.3 µM | [13] > 100 µM | [14] 84.9 µM | [15] > 100 µM

CC1=C(C(=O)NCc2ccccc2)C(c2ccccc2[N+](=O)[O-])C(C(=O)NCc2ccccc2)=C(C)N1
inactive: [1] 8.09 µM | [3] 16.4 µM | [4] 16.2 µM | [5] 12.8 µM | [16] 6.89 µM | [6] 13.6 µM | [7] 6.75 µM | [8] 13.1 µM | [9] 12.3 µM | [10] 14 µM | [11] 13.3 µM | [12] 8.49 µM | [13] 10.9 µM | [14] 13.1 µM | [15] 18.2 µM

Cc1cn(C2CC(O)C(COC(=O)c3ccccc3)O2)c(=O)[nH]c1=O (stereo not drawn)
inactive: [1] > 100 µM | [5] > 100 µM | [16] > 100 µM | [7] > 100 µM | [8] > 100 µM | [9] > 100 µM | [10] > 100 µM | [11] > 100 µM | [12] > 100 µM | [13] > 100 µM | [14] > 100 µM | [15] > 100 µM

COc1ccc(/C=C/COC(C)=O)cc1OC
inactive: [1] > 100 µM | [2] > 100 µM | [3] > 100 µM | [4] > 100 µM | [5] > 100 µM | [6] > 100 µM | [8] > 100 µM | [9] > 100 µM | [11] > 100 µM | [12] > 100 µM | [13] > 100 µM | [14] > 100 µM

C[N+]1(C)C/C(=C/c2ccc(F)cc2)C(=O)/C(=C\c2ccc(F)cc2)C1
inactive: [1] 38.2 µM | [2] > 100 µM | [3] > 100 µM | [16] 23.7 µM | [6] 53.8 µM | [7] > 100 µM | [8] 47.2 µM | [9] 32.7 µM | [10] 50.9 µM | [11] 24.7 µM | [12] 13.8 µM | [13] 16.4 µM | [14] 15 µM | [15] 31.1 µM

COc1ccc2c(c1)CCc1c(C(C)=O)c3ccccc3n1C2
inactive: [1] 20.7 µM | [5] > 100 µM | [16] 63.4 µM | [6] 33.4 µM | [7] 25.8 µM | [8] 28.1 µM | [9] 16.5 µM | [10] 47.3 µM | [11] 15.3 µM | [12] 25.6 µM | [13] 20.2 µM | [14] 60.3 µM

CC(C)=CCCC1(C)C=Cc2c(c(C)cc3c2[nH]c2cc(O)ccc23)O1 (stereo not drawn)
inactive: [1] > 25 µM | [2] > 25 µM | [4] > 25 µM | [5] > 25 µM | [16] > 25 µM | [7] > 25 µM | [8] > 25 µM | [10] > 25 µM | [12] > 25 µM | [13] > 25 µM | [14] > 25 µM

CC(C)(C)c1ccc2c(c1)S(=O)(=O)Nc1cccc(c1)NS(=O)(=O)c1cc(C(C)(C)C)ccc1OCCOCCO2
inactive: [1] > 100 µM | [2] > 100 µM | [3] > 100 µM | [4] > 100 µM | [5] > 100 µM | [6] > 100 µM | [7] > 100 µM | [8] > 100 µM | [9] > 100 µM | [10] > 100 µM | [11] > 100 µM | [12] > 100 µM | [13] > 100 µM | [14] > 100 µM | [15] > 100 µM

C#CCn1c(=O)[nH]c(=O)c2cccnc21
inactive: [2] > 100 µM | [4] > 100 µM | [6] > 100 µM | [7] > 100 µM | [9] > 100 µM | [11] > 100 µM | [13] > 100 µM | [14] > 100 µM

Cn1c(=O)c2nc3sc4ccccc4c(=N)n3c2n(C)c1=O
inactive: [1] > 100 µM | [2] > 100 µM | [3] > 100 µM | [4] 25.1 µM | [5] > 100 µM | [16] > 100 µM | [8] > 100 µM | [9] > 100 µM | [10] > 100 µM | [11] > 100 µM | [12] > 100 µM | [13] > 10 µM | [14] > 100 µM | [15] > 100 µM

CCOC(=O)C(C)(C)Oc1ccc(/C=C/C(=O)c2ccc(Cl)cc2)cc1
inactive: [1] 19.5 µM | [3] > 100 µM | [4] 30 µM | [5] 15.6 µM | [16] 17.2 µM | [6] 15.2 µM | [7] 16.4 µM | [8] 21.6 µM | [9] 18.6 µM | [10] 28.7 µM | [11] 18.4 µM | [12] 20.6 µM | [13] 17.7 µM | [14] 19.4 µM | [15] 20.2 µM

CC#CCC1CCC(OCC)=CC1=O (stereo not drawn)
inactive: [1] > 100 µM | [2] > 100 µM | [3] > 100 µM | [4] 92.7 µM | [5] > 100 µM | [16] > 100 µM | [6] > 100 µM | [7] > 100 µM | [8] > 100 µM | [9] > 100 µM | [10] > 100 µM | [11] > 100 µM | [12] > 100 µM | [13] > 100 µM | [14] > 100 µM

c1ccc2c(c1)C1=NCCN1c1ccccc1-2
inactive: [1] 2.78 µM | [2] 4.9 µM | [3] 4.54 µM | [5] 2.41 µM | [16] 1.64 µM | [6] 3.47 µM | [7] 1.23 µM | [8] 2.51 µM | [9] 2.72 µM | [10] 1.77 µM | [11] 2.7 µM | [12] 3.37 µM | [13] 3.15 µM | [14] 3.91 µM | [15] 3.18 µM
